Laboratory results: PubChem BioAssay (NCI)
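Five compound concentrations were applied to cells in 96-well plates for 48 hours; endpoints were derived by simple linear interpolation of the resulting dose-response curve. TGI is the concentration that stops growth completely.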

Experiments:
Assay in all cases: NCI-60 cell line screen, 48 h
786-0 renal = system: 786-0 renal
A549 NSCLC = system: A549 NSCLC
ACHN renal = system: ACHN renal
BT-549 breast = system: BT-549 breast
CAKI-1 renal = system: CAKI-1 renal
CCRF-CEM leukemia = system: CCRF-CEM leukemia
COLO 205 colon = system: COLO 205 colon
DU-145 prostate = system: DU-145 prostate
EKVX NSCLC = system: EKVX NSCLC
HCT-116 colon = system: HCT-116 colon
HCT-15 colon = system: HCT-15 colon
HL-60(TB) leukemia = system: HL-60(TB) leukemia
HOP-62 NSCLC = system: HOP-62 NSCLC
HS 578T breast = system: HS 578T breast
HT29 colon = system: HT29 colon
IGROV1 ovarian = system: IGROV1 ovarian
K-562 leukemia = system: K-562 leukemia
KM12 colon = system: KM12 colon
LOX IMVI melanoma = system: LOX IMVI melanoma
M14 melanoma = system: M14 melanoma
MALME-3M melanoma = system: MALME-3M melanoma
MCF7 breast = system: MCF7 breast
MDA-MB-231 breast = system: MDA-MB-231 breast
MDA-MB-435 = system: MDA-MB-435
MDA-N = system: MDA-N
MOLT-4 leukemia = system: MOLT-4 leukemia
NCI-H226 lung = system: NCI-H226 lung
NCI-H23 lung = system: NCI-H23 lung
NCI-H460 lung = system: NCI-H460 lung
NCI-H522 lung = system: NCI-H522 lung
NCI/ADR-RES ovarian = system: NCI/ADR-RES ovarian
OVCAR-3 ovarian = system: OVCAR-3 ovarian
OVCAR-4 ovarian = system: OVCAR-4 ovarian
OVCAR-5 ovarian = system: OVCAR-5 ovarian
OVCAR-8 ovarian = system: OVCAR-8 ovarian
PC-3 prostate = system: PC-3 prostate
RPMI-8226 leukemia = system: RPMI-8226 leukemia
RXF 393 renal = system: RXF 393 renal
SF-268 CNS = system: SF-268 CNS
SF-295 CNS = system: SF-295 CNS
SK-MEL-28 melanoma = system: SK-MEL-28 melanoma
SK-MEL-5 melanoma = system: SK-MEL-5 melanoma
SK-OV-3 ovarian = system: SK-OV-3 ovarian
SN12C renal = system: SN12C renal
SNB-19 CNS = system: SNB-19 CNS
SNB-75 CNS = system: SNB-75 CNS
SR leukemia = system: SR leukemia
T-47D breast = system: T-47D breast
TK-10 renal = system: TK-10 renal
U251 CNS = system: U251 CNS
UACC-257 melanoma = system: UACC-257 melanoma
UACC-62 melanoma = system: UACC-62 melanoma
UO-31 renal = system: UO-31 renal
A498 renal = system: A498 renal
SF-539 CNS = system: SF-539 CNS
SK-MEL-2 melanoma = system: SK-MEL-2 melanoma
SW-620 colon = system: SW-620 colon
HCC-2998 colon = system: HCC-2998 colon
HOP-92 NSCLC = system: HOP-92 NSCLC

Measured: TGI

S=C1CC(c2ccc(Cl)cc2)Sc2ccccc2N1 (stereo unspecified)
79.3 µM: SF-268 CNS
56.9 µM: SK-OV-3 ovarian
> 10 µM: K-562 leukemia | MOLT-4 leukemia | SNB-75 CNS
94 µM: SNB-19 CNS
48.6 µM: RXF 393 renal
40 µM: HS 578T breast
68 µM: OVCAR-3 ovarian
35.1 µM: HOP-62 NSCLC
not listed: A498 renal | SF-539 CNS | SK-MEL-2 melanoma | SW-620 colon | HCC-2998 colon | HOP-92 NSCLC
> 100 µM: all other assays above

Cc1ccc2[nH]c(=O)c(-c3cnc(=O)[nH]n3)c(O)c2c1
not listed: NCI-H522 lung | SNB-19 CNS | HCC-2998 colon | HOP-92 NSCLC
> 100 µM: all other assays above

NC(N)=NNC(=O)C(=O)O
not listed: HOP-92 NSCLC
> 100 µM: all other assays above

CO[P@]1(=O)O[C@@H](c2ccccc2)[C@H](O)[C@]1(O)c1ccccc1
not listed: HOP-62 NSCLC | MOLT-4 leukemia | SR leukemia | HCC-2998 colon
> 100 µM: all other assays above
